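Each compound was tested at five concentrations against cells in 96-well plates for 48 hours. GI50: concentration for 50% inhibition of growth. TGI marks complete inhibition of growth.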 Some results are limits rather than exact numbers.

Among the test systems are SK-OV-3 ovarian; NCI/ADR-RES ovarian; EKVX NSCLC; MCF7 breast; A498 renal; OVCAR-3 ovarian; MDA-MB-435; MOLT-4 leukemia; NCI-H460 lung; SF-539 CNS.
Holding throughout (assay): NCI tumour cell line growth inhibition, 48 h

Turning to `CC[C@@]1(OC(=O)CN(C)C)C(=O)OCc2c1cc1n(c2=O)Cc2cc3c(N)cccc3nc2-1`, the GI50 in the assay on SK-OV-3 ovarian is 0.0402 µM; in the assay with NCI/ADR-RES ovarian, 0.034 µM; in the assay with EKVX NSCLC it was 0.262 µM; with MCF7 breast, 0.0115 µM; with A498 renal, 0.0208 µM; in the assay on OVCAR-3 ovarian, 0.0383 µM. In addition, the GI50 in the assay with MDA-MB-435 is 0.078 µM; in the assay on MOLT-4 leukemia it was below 0.01 µM. Besides, the TGI was 0.884 µM in the assay with SK-OV-3 ovarian; 2.41 µM with NCI/ADR-RES ovarian; 3.58 µM in the assay with EKVX NSCLC; above 100 µM in the assay on MCF7 breast; 0.0987 µM with A498 renal; 0.218 µM in the assay with OVCAR-3 ovarian. In addition, the TGI worked out at 0.259 µM with MDA-MB-435 and 0.211 µM in the assay with MOLT-4 leukemia.
Take `COc1ccc(C(=O)O[C@H]2CC[C@@]3(C)[C@@H]4CC[C@H]5[C@]6(O)C[C@H](O)[C@@]7(O)[C@@H](CN8C[C@@H](C)CC[C@H]8[C@@]7(C)O)[C@]6(O)C[C@@]53OC24O)cc1OC`: the TGI in the assay on SK-OV-3 ovarian, in the assay on NCI/ADR-RES ovarian, in the assay with EKVX NSCLC, in the assay with NCI-H460 lung, in the assay with MCF7 breast and with A498 renal was above 100 µM in each case. In addition, the TGI in the assay on OVCAR-3 ovarian, in the assay with MDA-MB-435, with MOLT-4 leukemia and with SF-539 CNS was above 100 µM in each case.
For `Nc1c(OCC(=O)O)ccc2cc(S(=O)(=O)O)ccc12`, the TGI in the assay with SK-OV-3 ovarian, with NCI/ADR-RES ovarian, in the assay with NCI-H460 lung, in the assay on MCF7 breast, in the assay on A498 renal and in the assay with OVCAR-3 ovarian was above 100 µM in each case. Besides, the TGI with MDA-MB-435 and in the assay with SF-539 CNS was above 100 µM each time.
On to `COc1ccc(NC(=S)NNC(=O)c2nsc3ccccc23)cc1`, for which the TGI in the assay with EKVX NSCLC was above 100 µM; in the assay with NCI-H460 lung, above 100 µM; in the assay on OVCAR-3 ovarian it was 52.9 µM; in the assay on MOLT-4 leukemia, 87.8 µM; with SF-539 CNS it was 75.8 µM.
As to `C[C@]12Cc3cnc(-c4ccccc4)nc3C[C@@H]1CC[C@@H]1[C@@H]2CC[C@@]2(C)[C@H]1CC[C@]2(C)O`, the TGI was 50 µM with SK-OV-3 ovarian; 57 µM in the assay with NCI/ADR-RES ovarian; above 87.1 µM in the assay on EKVX NSCLC; 39.4 µM with NCI-H460 lung; 76.5 µM in the assay with MCF7 breast; 43.2 µM in the assay on A498 renal. Moreover, the TGI in the assay with OVCAR-3 ovarian is 54.4 µM; in the assay with MDA-MB-435, above 70.4 µM; with MOLT-4 leukemia it was above 100 µM; in the assay on SF-539 CNS, 9.55 µM.
`CCC1C(C#N)=C(O)NC(O)=C1C#N`: the TGI with SK-OV-3 ovarian, with EKVX NSCLC, in the assay on NCI-H460 lung, in the assay with A498 renal, with OVCAR-3 ovarian and in the assay on SF-539 CNS was above 100 µM in each case.
On to `NC1C=NNC1=O` (stereo unspecified), for which the TGI in the assay on SK-OV-3 ovarian, with EKVX NSCLC, with MOLT-4 leukemia and in the assay with SF-539 CNS was above 100 µM in each case.
As for `O=C1CCCC/C1=C1/SC(=Nc2ccccc2)C(=Nc2ccccc2)N1c1ccccc1`, the TGI in the assay on SK-OV-3 ovarian, in the assay on NCI/ADR-RES ovarian, with NCI-H460 lung, with MCF7 breast, in the assay on A498 renal and with OVCAR-3 ovarian was above 100 µM each time. Besides, the TGI in the assay on MOLT-4 leukemia is above 100 µM.
As for `COc1ccc(C(=O)NC2=C(Cl)C(=O)c3ccccc3C2=O)cc1`, the TGI in the assay on SK-OV-3 ovarian was 9.85 µM; with NCI/ADR-RES ovarian it was 9.05 µM; with EKVX NSCLC, 26.1 µM; in the assay on NCI-H460 lung, 13.7 µM; with MCF7 breast, 17.8 µM; with A498 renal, 27.7 µM. The TGI with OVCAR-3 ovarian is 6.26 µM; in the assay with MDA-MB-435, 7.53 µM; in the assay with MOLT-4 leukemia, above 22 µM; with SF-539 CNS, 11.6 µM.
Regarding `Clc1cc2ccccc2c2ccccc12`, the TGI in the assay on NCI/ADR-RES ovarian, in the assay on EKVX NSCLC, in the assay with NCI-H460 lung, in the assay on MCF7 breast, with A498 renal and in the assay on OVCAR-3 ovarian was above 100 µM each time. Further, the TGI with MDA-MB-435, with MOLT-4 leukemia and in the assay on SF-539 CNS was above 100 µM throughout.
Consider `O=C(O)C(O)(c1ccc(-c2ccccc2)cc1)c1ccc(-c2ccccc2)cc1`, for which the TGI in the assay with NCI/ADR-RES ovarian came to 61.2 µM; in the assay with EKVX NSCLC it was 70.9 µM; in the assay on NCI-H460 lung, 45.9 µM; in the assay with A498 renal, 43.5 µM; in the assay with OVCAR-3 ovarian, 30.3 µM; in the assay with MDA-MB-435, 43.7 µM. The TGI in the assay with MOLT-4 leukemia was above 100 µM.
With `CCOC(=O)c1nc2ccccc2n(CC)c1=O`, the TGI with SK-OV-3 ovarian, in the assay on NCI/ADR-RES ovarian, in the assay with EKVX NSCLC, in the assay on NCI-H460 lung, with MCF7 breast and in the assay with A498 renal was above 100 µM in each case. The TGI in the assay with OVCAR-3 ovarian, with MDA-MB-435, in the assay on MOLT-4 leukemia and in the assay on SF-539 CNS was above 100 µM in each case.
Consider `Clc1ccc(C2CC(c3cccc(Nc4ccncc4)c3)=NN2c2ccc(Cl)cc2)cc1` (stereo unspecified), for which the GI50 is 1.77 µM in the assay on SK-OV-3 ovarian; 1.58 µM in the assay with EKVX NSCLC; 1.86 µM in the assay on NCI-H460 lung; 1.56 µM with A498 renal; 1.71 µM in the assay with MDA-MB-435; 2.18 µM in the assay with MOLT-4 leukemia. For the same compound, the GI50 in the assay with SF-539 CNS was 1.64 µM. The TGI in the assay on SK-OV-3 ovarian was determined as 3.41 µM; in the assay on EKVX NSCLC, 3.04 µM; in the assay with NCI-H460 lung, 3.61 µM; with A498 renal it was 2.94 µM; in the assay on MDA-MB-435 it was 3.24 µM; with MOLT-4 leukemia, 5.52 µM. Also, the TGI in the assay with SF-539 CNS was found to be 3.03 µM.
